Data published in PubChem BioAssay (NCI).
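The concentration for 50% growth inhibition is given as GI50. TGI: concentration producing complete growth inhibition.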

Key:
Assay in all cases: NCI-60 cell line screen, 384-well format
[1] = test system: LOX IMVI melanoma
[2] = test system: A549 NSCLC
[3] = test system: MALME-3M melanoma
[4] = test system: SR leukemia
[5] = test system: COLO 205 colon
[6] = test system: CCRF-CEM leukemia
[7] = test system: HOP-62 NSCLC
[8] = test system: A498 renal
[9] = test system: 786-0 renal
[10] = test system: NCI-H460 NSCLC
[11] = test system: UACC-257 melanoma
[12] = test system: NCI/ADR-RES ovarian
[13] = test system: HL-60(TB) leukemia
[14] = test system: HCT-15 colon
[15] = test system: RPMI-8226 leukemia
[16] = test system: DU-145 prostate
[17] = test system: M14 melanoma
[18] = test system: SW-620 colon
[19] = test system: KM12 colon
[20] = test system: HOP-92 NSCLC
[21] = test system: MDA-MB-231 breast
[22] = test system: CAKI-1 renal
[23] = test system: NCI-H522 lung
[24] = test system: BT-549 breast
[25] = test system: MOLT-4 leukemia
[26] = test system: SNB-19 CNS
[27] = test system: MDA-MB-435 melanoma
[28] = test system: IGROV1 ovarian
[29] = test system: OVCAR-3 ovarian
[30] = test system: RXF 393 renal
[31] = test system: MDA-MB-468 breast
[32] = test system: NCI-H226 lung
[33] = test system: U251 glioblastoma
[34] = test system: K-562 leukemia
[35] = test system: SF-295 CNS
[36] = test system: HCC-2998 colon
[37] = test system: HT29 colon
[38] = test system: SNB-75 CNS
[39] = test system: SK-MEL-5 melanoma
[40] = test system: SN12C renal
[41] = test system: EKVX NSCLC
[42] = test system: T-47D breast
[43] = test system: OVCAR-4 ovarian
[44] = test system: UO-31 renal
[45] = test system: HCT-116 colon
[46] = test system: SF-539 CNS
[47] = test system: PC-3 prostate
[48] = test system: HS 578T breast
[49] = test system: ACHN renal
[50] = test system: UACC-62 melanoma
[51] = test system: OVCAR-8 ovarian
[52] = test system: SK-MEL-28 melanoma
[53] = test system: NCI-H23 lung
[54] = test system: SF-268 CNS
[55] = test system: NCI-H322M lung
[56] = test system: SK-OV-3 ovarian
[57] = test system: TK-10 renal
[58] = test system: MCF7 breast

## N#CC1(c2ccc(NC(=O)c3cccnc3NCc3ccncc3)cc2)CCCC1
[1]
  GI50: 13.3 µM
  TGI: 26.1 µM
[2]
  GI50: 12.1 µM
  TGI: 25.5 µM
[3]
  GI50: 3.09 µM
  TGI: 13.2 µM
[4]
  GI50: 2.45 µM
  TGI: 4.9 µM
[5]
  GI50: 13.4 µM
  TGI: 37.6 µM
[6]
  GI50: 4.22 µM
  TGI: 17.6 µM
[7]
  GI50: 11.2 µM
  TGI: 23.7 µM
[8]
  GI50: 7.95 µM
  TGI: 20.5 µM
[9]
  GI50: 4.39 µM
  TGI: 15.5 µM
[10]
  GI50: 7.74 µM
  TGI: 20.3 µM
[11]
  GI50: 10.4 µM
  TGI: 25.1 µM
[12]
  GI50: 11 µM
  TGI: 27.2 µM
[13]
  GI50: 2.05 µM
  TGI: 3.76 µM
[14]
  GI50: 3.17 µM
  TGI: 12.5 µM
[15]
  GI50: 1.95 µM
  TGI: 5.66 µM
[16]
  GI50: 12.3 µM
  TGI: 33.5 µM
[17]
  GI50: 12.6 µM
  TGI: 30 µM
[18]
  GI50: 8.06 µM
  TGI: 20 µM
[19]
  GI50: 13 µM
  TGI: 26.5 µM
[20]
  GI50: 10.3 µM
  TGI: 23.8 µM
[21]
  GI50: 4.96 µM
  TGI: 20.3 µM
[22]
  GI50: 11.7 µM
  TGI: 25 µM
[23]
  GI50: 10.5 µM
  TGI: 22.5 µM
[24]
  GI50: 8.33 µM
  TGI: 22.9 µM
[25]
  GI50: 4.64 µM
  TGI: 17.3 µM
[26]
  GI50: 14.3 µM
  TGI: 28.9 µM
[27]
  GI50: 14.5 µM
  TGI: 28.2 µM
[28]
  GI50: 13.7 µM
  TGI: 31 µM
[29]
  GI50: 9.01 µM
  TGI: 21.7 µM
[30]
  GI50: 1.84 µM
  TGI: 5.83 µM
[31]
  GI50: 3.62 µM
  TGI: 14.3 µM
[32]
  GI50: 11 µM
  TGI: 27.5 µM
[33]
  GI50: 12.6 µM
  TGI: 25.1 µM
[34]
  GI50: 2.88 µM
  TGI: 12.2 µM
[35]
  GI50: 9.76 µM
  TGI: 21.5 µM
[36]
  GI50: 5.87 µM
  TGI: 17.3 µM
[37]
  GI50: 3.99 µM
  TGI: 12.6 µM
[38]
  GI50: 7.08 µM
  TGI: 20.7 µM
[39]
  GI50: 2.82 µM
  TGI: 13 µM
[40]
  GI50: 7.37 µM
  TGI: 25.3 µM
[41]
  GI50: 6.32 µM
  TGI: 25.8 µM
[42]
  GI50: 2.75 µM
  TGI: 14.5 µM
[43]
  GI50: 11.7 µM
  TGI: 30.1 µM
[44]
  GI50: 12.6 µM
  TGI: 25.2 µM
[45]
  GI50: 10.6 µM
  TGI: 22.4 µM
[46]
  GI50: 4.43 µM
  TGI: 19.2 µM
[47]
  GI50: 9.47 µM
  TGI: 23.1 µM
[48]
  GI50: 3.38 µM
  TGI: 15.2 µM
[49]
  GI50: 13.7 µM
  TGI: 36.2 µM
[50]
  GI50: 10.9 µM
  TGI: 22.9 µM
[51]
  GI50: 11.1 µM
  TGI: 24.7 µM
[52]
  GI50: 13.8 µM
  TGI: 40.6 µM
[53]
  GI50: 9.55 µM
  TGI: 23.1 µM
[54]
  GI50: 12.9 µM
  TGI: 27.2 µM
[55]
  GI50: 12.2 µM
  TGI: 31.2 µM
[56]
  GI50: 12.1 µM
  TGI: 24.6 µM
[57]
  GI50: 11.2 µM
  TGI: 28.8 µM
[58]
  GI50: 5.9 µM
  TGI: 21.2 µM
